# According to patent US12157772B2, “Prophylactic agent, onset-suppressing agent or therapeutic agent for progressive immune demyelinating diseases” (NATIONAL CENTER OF NEUROLOGY AND PSYCHIATRY, priority 2016, dated 2024):
# B1: prolactin: recombinant prolactin added to Th cell cultures (protein, UniProt P01236 29-227, looked up)
# Prolactin: LPICPGGAARCQVTLRDLFDRAVVLSHYIHNLSSEMFSEFDKRYTHGRGFITKAINSCHTSSLATPEDKEQAQQMNQKDFLSLIVSILRSWNEPLYHLVTEVRGMQEAPEAILSKAVEIEEQTKRLLEGMELIVSQVHPETKENEIYPVWSGLPSLQMADEESRLSAYYNLLHCLRRDSHKIDNYLKLLKCRIIHNNNC
# Tests used:
# [1] = tested on: NR4A2-deficient mouse in which monophasic EAE had been induced; experiment: EAE clinical score in NR4A2-deficient mice with induced monophasic EAE; type: in vivo
# Excerpt: (§1) Into each CD4-Cre/NR4A2^fl/fl mouse in which monophasic EAE had been induced in a similar manner to the above 1.(3), L-dopa or a placebo (DMSO and PBS) was intraperitoneally injected every other day from day 4 after the induction.
# [2] = tested on: CD4+ T cells, CD19+ B cells, CD19-CD45hi non-B/class II+ antigen-presenting cells infiltrated into the CNS; experiment: Eomes and Zbtb20 expression in CNS-infiltrated cells after L-dopa dosing (FACS); type: in vivo, mouse; conditions: CNS at day 32 after the induction
# Excerpt: as §1
# Next, the brain and the spinal cord were collected from each mouse at day 32 after the induction; and CD4^+ T cells, CD19^+ B cells, or CD19^−CD45^hi non-B/class II^+ antigen-presenting cells infiltrated into the CNS were sorted by FACS using a FACS ARIA II (manufactured by BD Cytometry Systems, Inc.). The respective sorted cells were stained and analyzed regarding the Eomes and Zbtb20 gene expressions. As antibodies used at the detection were an anti-CD4 antibody (manufactured by Biolegend, Inc.), an anti-Eomes antibody (manufactured by eBioscience, Inc.), an anti-CD19 antibody (manufactured by Biolegend, Inc.), and an anti-Zbtb20 antibody (manufactured by Becton Dickinson, Inc.).
# prolactin gene (Prl) = experiment: Prolactin gene (Prl) expression in CNS-derived antigen-presenting cells after L-dopa dosing (quantitative real-time PCR); type: in vivo, mouse; conditions: CNS-derived B cells and non-B/class II+ antigen-presenting cells; repeated dosing; FIG. 25
# Protocol: Next, CD19^+ B cells and CD19^−CD45^hi non-B/class II^+ antigen-presenting cells were separated from the CNS or the spleen of each L-dopa-administered mouse or each intact mouse; and the expression levels of prolactin gene (Prl) in these types of cells were analyzed by using a quantitative real-time PCR assay. As antibodies used at the detection were an anti-CD19 antibody (manufactured by Biolegend, Inc.) and an anti-CD45 antibody (manufactured by Biolegend, Inc.).
# [3] = tested on: CD19+ B cells or CD19-CD45hi non-B/class II+ antigen-presenting cells; conditions: CD19+ B cells and CD19-CD45hi non-B class II+ cells; cultured 24, 48 or 96 h with dopamine; FIG. 22
# Protocol: CD19^+ B cells or CD19^−CD45^hi non-B/class II^+ antigen-presenting cells were purified from each mouse with the late-stage EAE pathology by sorting by FACS. The respective purified cells were cultured for 24, 48, or 96 h in the absence of dopamine or in the presence of a specific amount of dopamine. Next, the cultured cells were recovered and the prolactin gene (Prl) and Zbtb20 gene expression levels were analyzed by using a quantitative real-time PCR assay.
# [4] = tested on: Spleen-derived CD19+ B cells; experiment: Zbtb20 expression in spleen-derived CD19+ B cells cultured with LPS and various cytokines; type: cell-based, mouse; conditions: cultured for 24 h in the presence of LPS and cytokine; FIG. 33
# Protocol: Spleen-derived CD19^+ B cells were isolated and purified by sorting by FACS using a FACS ARIA II (manufactured by BD Cytometry Systems, Inc.). The purified B cells were cultured for 24 h in the presence of LPS and in the co-presence or absence of each cytokine designated in FIG. 33(a). After the culturing, the expression levels of Zbtb20 gene in the respective cells were measured. As antibodies used at the detection were an anti-CD19 antibody (manufactured by Biolegend, Inc.) and an anti-Zbtb20 antibody (manufactured by Becton Dickinson, Inc.).
# [5] = tested on: Spleen-derived CD226+CD4+ T cells; experiment: Culturing of spleen-derived CD226+CD4+ T cells in co-presence of prolactin, Eomes expression (flow cytometer / quantitative real-time PCR); type: cell-based, mouse
# Protocol: Spleen-derived CD226^+CD4^+ T cells collected from each intact wild-type B6 mouse were cultured for 4 h or 8 h in the absence of prolactin or in the presence of each specific amount of prolactin. The Eomes expression levels in the respective cells after the culturing were measured by using a flow cytometer or a quantitative real-time PCR assay. As antibodies used at the detection were an anti-CD4 antibody (manufactured by Biolegend, Inc.) and an anti-Eomes antibody (manufactured by eBioscience, Inc.).
# Spleen-derived Th cells = experiment: Prolactin addition and Eomes gene expression in spleen-derived Th cells (quantitative real-time PCR); type: cell-based, mouse; conditions: cultured 8 h; recombinant prolactin at low and high concentration; FIG. 15
# Protocol: Spleen-derived Th cells of each intact mouse were cultured for 8 h in the absence or presence of recombinant prolactin. After the culturing, total RNA was extracted from the Th cells. A first strand cDNA synthesis kit (manufactured by Takara Bio Inc.) was used to synthesize cDNA from the total RNA obtained. A Light Cycler instrument was used under conditions using a Light Cycler-Fast Start DNA Master SYBR Green I kit (manufactured by Roche Diagnostics, Inc.) or an ABI 7300 real-time PCR instrument was used under conditions using a Power SYBR Green Master mix (manufactured by Applied Biosystems, Inc.) to perform a quantitative real-time PCR assay by using commercially available primers (QuantiTect Primer Assay, QT01074332; manufactured by Qiagen, Inc.). The Eomes gene expression levels were corrected based on the expression level of a housekeeping gene GAPDH.
# [6] = tested on: Spleen-derived CD226+ Th cells; experiment: Prolactin addition and Eomes protein expression in spleen-derived CD226+ Th cells (FACS); type: cell-based, mouse; conditions: cultured for 48 h in the presence of prolactin; FIG. 16
# Protocol: Spleen-derived CD226^+ Th cells were cultured for 8 h or 48 h in the absence or presence of prolactin. After the culturing, the CD226^+ Th cells were stained with an anti-CD226 antibody and an anti-Eomes antibody, and a FACS CANTO II (manufactured by BD Cytometry Systems, Inc.) was used to analyze CD226^+Eomes^+ T cells, CD226^+ Eomes^− T cells, and CD226^− T cells. As the antibodies used during the analysis were an anti-CD226 antibody (manufactured by Biolegend, Inc.) and an anti-Eomes antibody (manufactured by Biolegend, Inc.).
molecule,measurement,setting,value
"N[C@@H](Cc1ccc(O)c(O)c1)C(=O)O [L-dopa, L-3,4-dihydroxyphenylalanine]",cumulative EAE scores,"[1]; intraperitoneally every other day from day 4, right graph of FIG. 23",improvement
same,EAE scores,"[1]; intraperitoneally every other day from day 4 after the induction, FIG. 23",improve markedly
same,percentage of CD4+Eomes+ T cells in the CD4+ T cells,[2]; FIG. 24(a),decrease markedly
same,percentage of Zbtb20+ cells in the CD19+ B cells,[2]; FIG. 24(b),decrease
same,percentage of Zbtb20+ cells in the CD19-CD45hi non-B/class II+ antigen-presenting cells,[2]; FIG. 24(c),decrease
same,expression levels of prolactin gene,prolactin gene (Prl),decrease
NCCc1ccc(O)c(O)c1 [dopamine],Zbtb20 gene expression levels,[3],decreased markedly
same,prolactin gene expression levels,[3],decreased markedly
IFNα,increase in the expression of Zbtb20 gene,[4],the most remarkable
B1,Eomes gene expression level,"[5]; prolactin at 30 ng/mL, FIG. 8(b)",increased
same,percentage of CD4+Eomes+ T cells,"[5]; prolactin at 30 or 100 ng/mL, cultured 4 h or 8 h, FIG. 7, 8(a)",increased markedly
same,relative expression level of Eomes relative to that of a housekeeping gene,Spleen-derived Th cells,increased in a prolactin concentration-dependent fashion
same,Eomes expression levels,[6],increased more markedly
